Laboratory results published in patent US20250361217A1, “FATTY ACID COMPOUNDS” (University of Pittsburgh - Of the Commonwealth System of …, priority 2022, published 2025).

Tests used:
ACC = assay: Thermal shift assay of liver proteins, ACC; assay type: binding, mice
Description: The liver samples (50 mg) were homogenized and vortexed in ice-cold RIPA buffer containing phosphatase (Fisher Scientific, #PIA32957) and protease (Fisher Scientific, #PIA32953) inhibitor cocktails. Protein concentration was determined using a […] (Pierce). Protein lysates were mixed with LDS Sample Buffer (1:4) and heated for 2 min at 95° C. The lysates were then loaded and electrophoresed on a 10% Tris-Glycine eXtended (BioRad, Criterion #5671034). The proteins were electrophoretically transferred to a PVDF membrane (BioRad, #1620177), and the transfer was confirmed by staining the membrane with 0.1% Ponceau S solution (Sigma-Aldrich, #6226-79-5). The membrane was then blocked for 90 min at RT with 5% nonfat dry milk (LabScientific) or 5% BSA (MilliporeSigma) in TBS-T (tris buffered saline+0.1% Tween 20 [Thermo Fisher Scientific]). […] Quantitative densitometric analysis was performed using Image Lab software (Bio-Rad).
Thermal Shift Assay Proteins were extracted from the liver powder (50 mg) with 1 mL of phosphate-buffered saline (PBS—Gibco, Paisley, UK) containing phosphatase (Fisher Scientific, #PIA32957) and protease (Fisher Scientific, #PIA32953) inhibitors. […] The Supernatants were transferred to new tubes and analyzed by western blot as described above.

liver gene expression = assay: RNA-Sequencing of livers with IPA pathway analysis; assay type: in vivo, mice
Description: Bioinformatics and Biostatistics Analyses on RNA Sequencing Data Transcriptome sequencing was performed on mice samples from each group with four replicates per condition. Quality control was first performed on the raw sequencing data by tool FastQC. Then low-quality reads and adapter sequences were trimmed out by tool Trimmomatic. After pre-processing, the surviving reads were aligned into mouse reference genome mm10 by STAR aligner. Gene counts per gene per sample were quantified by function—quantMode GeneCounts supported by the STAR aligner. Gene expression normalization was performed by R package DEseq2.
Given the gene expression profile, differential expression analyses were performed based on gene counts by DEseq2 package. Five pairwise comparisons were analyzed: LFD+Veh vs LFD+11D3, HFD+Veh vs HFD+11D3, HFD+Veh vs HFD+11U3, HFD+Veh vs HFD+11U3-2M and LFD+Veh vs HFD+Veh. Differentially expressed genes (DEGs) were defined by FDR=5% and absolute fold-change equal to or greater than 1.5. For the downstream analysis, Ingenuity Pathways Analysis (IPA) was employed to perform pathway enrichment analysis on the DEGs. Significant pathways were defined by FDR=5%. Regulation directions were measured by Z-scores, where a positive Z-score indicates activation of the pathway and a negative Z-score means inhibition, while some pathways show out unknown or mix of regulation directions.

`CCCc1ccc(CCCCCCCCCC(C)(C)C(=O)O)o1` [11U3-2M, 2,2-Dimethyl-11-(5-propylfuran-2-yl)undecanoic acid] was tested, and the ACC thermal stability (ACC; full cohorts, HFD+11U3-2M, higher temperature (52, 53.5, 55° C.)) was “greatly increased”, the “ACC thermal stability compared to veh” value (ACC; one mouse per group, 52, 53.5 and 55° C.) was “higher stability” and the “activated pathways (Ingenuity Pathway Analysis)” value (liver gene expression; liver RNA-Seq DEGs vs HFD+veh) was “FA β-oxidation was the most activated pathway”. The “LncRNA GM10804 downregulated” value (liver gene expression; liver RNA-Seq vs HFD+veh) was 5 fold, the “LncRNA GM15441 increased” value (liver gene expression; liver RNA-Seq vs HFD+veh) was 137 fold and the “increase in PDK4 gene” value (liver gene expression; liver RNA-Seq vs HFD+veh) was 7 fold.
